Test results published in publication PMC8810938 (Clinical & Translational Immunology, 2022).

Columns and labels:
[1] = test system: TGF‐β1‐stimulated human fibroblasts; assay: Induction assay: fibrotic marker mRNA; assay type: cell-based; settings: primary human fibroblasts, TGF‐β1 5 ng mL^−1, 48 h, only at the highest test concentration 100 nM; qPCR; n = 4
[2] = biological target: T1, CXCR3A‐transfected CHO cells (human CXCR3A) (Homo sapiens, UniProt P49682); settings: CXCR3‐transfected CHO cells; n = 4; cited from earlier work
T1 sequence (P49682 1-368): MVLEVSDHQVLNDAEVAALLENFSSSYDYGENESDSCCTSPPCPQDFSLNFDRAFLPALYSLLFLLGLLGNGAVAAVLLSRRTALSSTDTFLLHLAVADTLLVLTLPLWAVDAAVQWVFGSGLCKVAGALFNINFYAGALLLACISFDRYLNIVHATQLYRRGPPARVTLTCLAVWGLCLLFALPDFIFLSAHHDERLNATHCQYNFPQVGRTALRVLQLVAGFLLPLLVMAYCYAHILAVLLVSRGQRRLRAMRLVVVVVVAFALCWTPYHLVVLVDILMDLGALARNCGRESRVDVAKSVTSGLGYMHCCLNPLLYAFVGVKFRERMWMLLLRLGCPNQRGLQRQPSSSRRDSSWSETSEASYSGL

Substance: CXCL9(1–103): authentic full‐length human CXCL9 chemokine of 103 amino acids (Peprotech)
- collagen III mRNA expression [1]: significant reduction
- calcium response [2]: 598.1 ± 22.9 nM
